# Legend:
# [1] = system: hip arthritis (osteoarthritis); test: Hip arthritis patients: VAS pain intensity, WOMAC, tolerance (Example 5); format: in vivo, human; conditions: 11 hip arthritis patients; for WOMAC mean (±SD): beginning 55.03 (±26.63); for Doctor VAS pain intensity, mean (±SD), 0-100: beginning 55.23 (±9.66); for Patients VAS pain intensity, mean (±SD), 0-100: beginning 58.32 (±8.25)
# Protocol: To smear the solution over the skin of hip arthritis with swab immediately, once a day for consecutive 20 days. Then stop the administration for three months, and then began continuous treatment for 20 days. Clean and disinfect the regions before treatment, conduct local anesthetic 30 minutes before the operation.
# The subjects who joined in the treatment group as volunteers consisted of 11 patients with hip arthritis (5 male, aged from 40 to 70 years old and 6 female, aged from 40 to 65 years old.). Case histories were recorded at the third and the sixth month by collecting personal and data of human body (height, body weight, BMI, blood pressure and heart rate.) Then evaluate the following parameters:
# Pain intensity: VAS was used, ranging from 0 (normal) to 100 (maximum intensity), it was conducted by the doctor and patient:
# Seriousness of the illness: Womac, namely, self-assessment of hip arthritis that consists of 24 items was used to detect the development and effect of the treatment.
# [2] = system: rat model of type II diabetes mellitus; test: Fasting blood-glucose in rat model of type II diabetes mellitus (Example 10); format: in vivo
# Protocol: The rat models of type II diabetes mellitus bought from Department of Medicine of Peking University were divided into group A and B randomly with 10 rats for each group. Group A was treatment group of activating agent of stem cells. Group B was control group of 0.9% sodium chloride of the same volume. The rats of group A were injected with 0.5 ml activating agent of stem cells at insulin injection site on day 0, same dosage of medicine were injected on day 7, day 14; The rats of group B were injected with 0.5 ml NS at hepatic artery at the same point-in-time, then calculate the blood sugar. The fasting blood-glucose of the rat model was checked on day 7, day 14, day 21 and day 28 respectively after the last injection. Table 20 is the results.
# gastric ulcer = test: hp-positive gastric ulcer patients: symptoms and ulcer healing by gastroscopy (Example 11); format: in vivo, human
# Protocol: The subjects consisted of 90 gastric ulcer patients (50 male and 40 female) of hp-positive aged from 33 to 75 years old (average age: 41 years old). The subjects were randomly assigned to treatment group and control group with 30 patients in treatment group and 30 in control group 1 and 30 in control group 2 respectively.
# Allow the solution to mix for 3-5 minutes. The capsule that containing activating agent of stem cells was made by injecting the mixed solution into the soft capsule of number 0.
# The capsule that containing activating agent of stem cells was administered to the patients in treatment group three times a day and a pill each time; 30 minutes before meals, patients in control group 1 took orally 15 mg colloidal bismuth and 100 mg pectin tinidazole for three times a day. And 20 mg Omeprazole two times a day; patients in control group 2 took orally […] amoxicillin and 500 mg clindamycin three times a day and 20 mg esomeprazole twice a day before meals. Both groups were administered for a consecutive week. To observe the improvement of the clinical symptoms of the three cases two weeks after administration, such as stomachache, nausea and sour regurgitation. Gastroscopy and urease test of gastric antral mucosa were conducted after 30 days to observe ulcer healing and eradication of hp.
# Criteria for measuring the effects: the changes of conditions before and after treatment and the time the symptoms disappear were recorded precisely. Diagnostic criteria are the followings: 1) complete healing: the symptoms disappear, such as ache, heartburn, nausea, sour regurgitation, abdominal distention; cure of ulceration under a gastroscope and the inflammation is gone; H pylori is negative. 2) Almost healing: subjective symptom disappear, and more than 90% ulceration are healed and the inflammation around is gone. 3) Effective: more than half of the ulcer surface shrink or more than half of ulceration reduced; 4) Ineffective: less than half of the ulceration are healed or haven't been changed, or even the ulcer surface or ulceration increase. To conduct rapid urease test by taking one sample of gastric mucosa at antrum of stomach and gastric body respectively, if the results are negative, it means Hp negative conversing.
# [3] = system: postoperative complications of lung cancer; test: Postoperative complications of lung cancer (Example 12); format: in vivo, human; conditions: 15 patients
# Protocol: The subjects consisted of 30 lung cancer patients of stage I, II III who had operations on lung cancer just now. The subjects were randomly assigned to treatment group and control group with 15 patients respectively.
# […] acid aqueous solution with a ph value of 3 was made by citric acid and deionized water. 500 ml aqueous solution of 30% was made with deionized water and sodium chlorite, 500 ml aqueous solution of 50% was made with deionized water and citric acid. To mix the above solutions in a conical beaker of 2 L capacity and then put them in the prepared acid aqueous solution by a plastic tube with bottle stopper. The activating agent of stem cells comprising chlorine dioxide was made by bubbling chlorine dioxide in the acid aqueous solution for 40 minutes and the solution was contained in 150 plastic bottles with 100 ml capacity and stored in the fridge.
# Each patient in treatment group received 10 bottles of the solution. Open the plastic bottle cap and do alternate nostril breathing for 2-10 minutes on day 2 after the operation with a bottle a day for three times, then cover the bottleneck once finished. No special nursing means were applied in control group, then observe the complications a month after the operation.
smiles,measurement,setting,value
"[O][Cl+][O-] [chlorine dioxide solution, chlorine dioxide]",time until pain and itch during administration disappeared completely,[1]; topical with DMSO,about an hour
same,tolerance,[1]; topical with DMSO,without local or systemic anaphylactic reaction
same,WOMAC mean (±SD),"[1]; sixth month, topical with DMSO",6.54 (±5.86)
same,"Doctor VAS pain intensity, mean (±SD), 0-100","[1]; sixth month, topical with DMSO",7.11 (±6.93)
same,"Patients VAS pain intensity, mean (±SD), 0-100","[1]; sixth month, topical with DMSO",6.32 (±6.53)
same,WOMAC mean (±SD),"[1]; third month, topical with DMSO",20.11 (±22.53)
same,"Doctor VAS pain intensity, mean (±SD), 0-100","[1]; third month, topical with DMSO",20.03 (±7.32)
same,"Patients VAS pain intensity, mean (±SD), 0-100","[1]; third month, NaClO2 8%/NaCl 2% + citric acid 15% 1:1, DMSO 1:1, smeared once a day 20 days, three months off, 20 days",18.24 (±7.25)
same,"MBG (fasting blood-glucose), ±SD","[2]; Day 7 after administration, Group A n=10, Day 0 17.3 ± 0.4, NS group 18.3 ± 2.4, NaClO2 4%/NaCl 1% + citric acid 8% 1:1, 0.5 ml injected day 0, 7, 14",9.3 ± 3.5 mmol/L
same,"MBG (fasting blood-glucose), ±SD","[2]; Day 14 after administration, Day 0 17.3 ± 0.4, NS group 17.2 ± 1.6, 0.5 ml injected day 0, 7, 14",4.3 ± 1.1 mmol/L
same,"MBG (fasting blood-glucose), ±SD","[2]; Day 28 after administration, Day 0 17.3 ± 0.4, NS group 17.9 ± 2.3, 0.5 ml injected day 0, 7, 14",3.1 ± 1.2 mmol/L
same,FBG levels of rats in treatment group,[2]; control group remains unchanged,become normal after 14 days
same,side effects,[2]; rat model of type II diabetes mellitus,few or no side effects
same,"MBG (fasting blood-glucose), ±SD","[2]; rat, in vivo",3.5 ± 1.3 mmol/L
same,Symptoms disappear after a week (No.),"gastric ulcer; 30 hp-positive gastric ulcer patients per group, administered for a consecutive week, test capsule NaClO2 20%/NaCl 5% + citric acid 30% 1:1, one pill three times a day",30
same,Effective after 30 d (%),gastric ulcer; 30 patients per group,3.3%
same,Healing after 30 d (%),gastric ulcer; 30 patients per group,3.3%
same,Symptoms disappear after a week (%),"gastric ulcer; 30 patients per group, administered for a consecutive week",100%
same,Healing after 30 d (No.),"gastric ulcer; 30 patients per group, almost healing: more than 90% ulceration healed",1
same,Complete healing after 30 d (%),"gastric ulcer; 30 patients per group, gastroscopy",93.3%
same,Complete healing after 30 d (No.),"gastric ulcer; 30 patients per group, gastroscopy, administered for a consecutive week",28
same,Effective after 30 d (No.),"gastric ulcer; 30 patients per group, more than half of ulcer surface shrink",1
same,Serious complications (No.),"[3]; a month after lung cancer operation, ClO2 gas bubbled into pH 3 citric acid solution, nostril breathing 2-10 minutes three times a day, 10 bottles, control 4 (26.7%)",1
same,No complication (No.),"[3]; a month after operation, inhalation, control 5 (33.3%)",9
same,Minor complications (No.),"[3]; a month after operation, inhalation, control 6 (40%)",5
same,Serious complications (%),"[3]; a month after operation, inhalation, control 26.7%",6.7%
same,No complication (%),"[3]; a month after operation, inhalation, control 33.3%",60%
same,Minor complications (%),"[3]; a month after operation, inhalation, control 40%",33.3%
